Reference: patent publication US12582721B2, “Molybdenum-based feed supplement for bees” (UNIVERSITE DE VERSAILLES—SAINT-QUENTIN-EN-YVELINES, priority 2020, dated 2026)

Tests used:
[1] = system: human epithelial pancreatic adenocarcinoma cells of the BxPC-3 line; experiment: Resazurin cell proliferation test, BxPC-3 cells; type: cell-based; conditions: pancreatic cancer cells; IC50 equal to and greater than 100 μM considered no activity
Description: For cell culture, human cervical epithelial cells of the HeLa line, human epithelial pancreatic adenocarcinoma cells of the BxPC-3 line and healthy Madin-Darby canine kidney epithelial cells of the MDCK line were used in this study. The Resazurin cell proliferation test was applied according to the literature (S. Anoopkumar-Dukie, J. B. Carey, T. Conere, E. O'Sullivan, F. N. van Pelt, A. Allshire, Br J Radiol 2005, 78, 945, DOI: 10.1259/bjr/54004230). As an indicator of the effectiveness of the experimental compounds on cell proliferation, the median inhibitory concentration (IC50) was used. The lower the IC50 value, the higher the activity (in this case, the cytotoxicity).
Five formula I complexes were tested in this study in comparison to two reference anti-cancer compounds (“Cisplatin” and Doxorubicin complex).

[2] = system: Varroa destructor; experiment: 1st test in hives: degree of infestation with Varroa; type: in vivo; conditions: for Degree of infestation with Varroa / Degree of infestation with Varroa, change versus batch I: overall dose 2 mg per colony; for Degree of infestation with Varroa: 100 = 1.78 mite/10 g of bees; for Degree of infestation with Varroa, change versus batch I: value in brackets
Experimental: Biological field tests were performed on families of European domestic bees of the species Apis mellifera […] experimental apiary located in the […] forestry district (Republic of Moldova). Feeding with the complex of the invention took place in spring. The biological tests were monitored up to the month of September. To administer the compounds to the bees, a very small amount of bioactive substance was added to two types of sugary feeding products for bees: candy in the form of a paste (70% sucrose, 30% honey) or syrup (50% sucrose, 50% water). The bees were fed by adding the candy/syrup to the feeder located in the inner upper part of the hive. The volume of syrup was adjusted based on the number of bee frames at the initial time, more precisely 200 g of candy per frame and 100 mL of syrup per frame, that is 2 kg of candy and 1 L of syrup per hive of 10 frames. For the first feeding step, candy in the form of a paste was only given once. […] From the start of the test to the end (after the second harvest), all the bees were monitored for several key morpho-producing parameters that reflect the development level of the colony and the vital aspects of the bees. The parameters studied are: the prolificity of the queen (fertility), the power of the colonies, the production of honey and the production of wax. These parameters were monitored in line with the zootechnical standards concerning the assessment of bee families, breeding and certification of beekeeping parental material approved by government decision No. 306 dated Apr. 28, 2011 of the Republic of Moldova. The assessment consists in counting the number of Varroa on a sample of adult bees. The value from this count is used as an index for monitoring the level of parasitism in the colony. The method uses icing sugar and a “shaker” jar made of transparent glass with a capacity of 1 kg. The cover is a mesh made of galvanized steel of the type placed at the bottom of the hive, with a mesh size of 3 mm. The mesh allows Varroa mites to pass through but retains the honey bees. The method is implemented according to the following steps: 40 to 50 g of honey bees are collected in the jar (approximately 400 bees), 100 g of icing sugar is added and the shaker jar is rolled for 1 minute so as to cover every bee in icing sugar. The icing sugar then makes it possible to separate the Varroa mites from the body of the host bee so that they drop off. Leave to rest for 1 minute: bees have a delousing behavior, which helps the Varroa mites to drop off. The icing sugar is sieved over a sieve which makes it possible to retain the Varroa mites and then count them. The result is given as the number of mites per 10 g of bees (approximately 100 bees) and can be expressed as a %. This rate is indicative of the Varroa burden in the colony. […] A moderate rate is between 2 and 5 and, in this case, treatment of the colonies must be scheduled. Finally, a rate greater than 5, requires emergency treatment of the colony. Our tests give a result of around 2% for worker bees. The molecules tested, their concentration in solution and their annual overall doses are listed below: • 1. […] The concentration of the complex in the syrup: 1.5×10^-7 mol/L. Overall and annual product dose: 2 mg of complex per colony • 2. […] The concentration of the complex in syrup: 3.0×10^-7 mol/L. Overall and annual product dose: 2 mg of complex per colony • 3. […] Overall and annual product dose: 2 mg of complex per colony • 4. LiCH3COO·H2O as a positive control, abbreviated as Li-Ac • The feeding is carried out with 2000 g of candy containing 0.8 mg of positive control product, then 6 to 7 L of syrup containing 0.2 mg/L of positive control product. The concentration of the product in syrup: 2.36×10^-6 mol/L that is 1.67×10^-5 g/L. Overall and annual product dose: 2 mg of product per colony

[3] = system: Varroa destructor; experiment: 2nd test in the hives: degree of infestation of bees with Varroa; type: in vivo; conditions: for Degree of infestation with Varroa: 100 = 2.32 mite/10 g of bees; for Degree of infestation with Varroa, change versus batch I: value in brackets
Description: The assessment consists in counting the number of Varroa on a sample of adult bees. The value from this count is used as an index for monitoring the level of parasitism in the colony. The method uses icing sugar and a “shaker” jar made of transparent glass with a capacity of 1 kg. The cover is a mesh made of galvanized steel of the type placed at the bottom of the hive, with a mesh size of 3 mm. The mesh allows Varroa mites to pass through but retains the honey bees. The method is implemented according to the following steps: 40 to 50 g of honey bees are collected in the jar (approximately 400 bees), 100 g of icing sugar is added and the shaker jar is rolled for 1 minute so as to cover every bee in icing sugar. The icing sugar then makes it possible to separate the Varroa mites from the body of the host bee so that they drop off. Leave to rest for 1 minute: bees have a delousing behavior, which helps the Varroa mites to drop off. The icing sugar is sieved over a sieve which makes it possible to retain the Varroa mites and then count them. The result is given as the number of mites per 10 g of bees (approximately 100 bees) and can be expressed as a %. This rate is indicative of the Varroa burden in the colony. […] A moderate rate is between 2 and 5 and, in this case, treatment of the colonies must be scheduled. Finally, a rate greater than 5, requires emergency treatment of the colony. Our tests give a result of around 2% for worker bees. The 2nd test was performed in the same apiary the following year. Feeding with the complex of the invention took place in spring. The biological tests were monitored up to the month of September. The molecules tested, their concentration in solution and their annual overall doses are listed below: • 1. […] The concentration of the complex in syrup: 1.5×10^-7 mol/L. Overall product dose: 2 mg/colony • 2. […] Overall complex dose: 6 mg/colony • 4. LiCH3COO·H2O for comparison, abbreviated as Li-Ac • The feeding is carried out with 2000 g of candy containing 0.8 mg of product then 6 to 7 L of syrup containing 0.2 mg/L of product. The concentration of product in the syrup: 2.36×10^-6 mol/L that is 1.67×10^-5 g/L. Overall product dose: 2 mg/colony

Row | SMILES | IC50, BxPc-3 [1] | Protective effect against the infestation of bees by Varroa destructor ([2]; 1st test, 2 mg per colony, relative to untreated batch I, Li complex at a lithium concentration almost 4 times lower than Li—Ac) | Degree of infestation with Varroa [2] | Degree of infestation with Varroa, change versus batch I [2] [%] | Degree of infestation with Varroa ([3]; overall dose 2 mg/hive) | Degree of infestation with Varroa, change versus batch I ([3]; overall dose 2 mg/hive) [%] | Degree of infestation with Varroa ([3]; overall dose 6 mg/hive) | Degree of infestation with Varroa, change versus batch I ([3]; overall dose 6 mg/hive) [%] | IC50 [1] [µM]
1 | O.O.O.O.O.O.O=C([O-])CN(CCN(CC(=O)[O-])CC(=O)[O-])CC(=O)[O-].[Li+].[Li+].[O]=[Mo+]12[O][Mo+]1(=[O])[O]2 [Li—Mo2O4-EDTA, Li2[Mo2O4 (EDTA)]·6H2O] | Inactive | protective capacity comparable to that of the lithium acetate | 57.3 % relative to batch I | −42.7 | 52.6 % relative to batch I | −47.4 | 38.4 % relative to batch I | −62.6 | 
2 | O.O.O.O.O.O=C([O-])CN(CCN(CC(=O)[O-])CC(=O)[O-])CC(=O)[O-].[Na+].[Na+].[O]=[Mo+]12[O][Mo+]1(=[O])[O]2 [Na—Mo2O4-EDTA, Na2[Mo2O4 (EDTA)]·5H2O] | Inactive |  | 86.5 % relative to batch I | −13.5 |  |  |  |  | 
3 | O=C([O-])CN(CCN(CC(=O)[O-])CC(=O)[O-])CC(=O)[O-].[O]=[Mo+]12[O][Mo+]1(=[O])[O]2.c1ccc([P+](c2ccccc2)(c2ccccc2)c2ccccc2)cc1.c1ccc([P+](c2ccccc2)(c2ccccc2)c2ccccc2)cc1 [PPh4—Mo2O4-EDTA, (PPh4)2[Mo2O4 (EDTA)]·2.5H2O] |  |  | 78.7 % relative to batch I | −21.3 | 60.8 % relative to batch I | −39.2 |  |  | 25.1 ± 7.02
4 | CC(=O)[O-].[Li+] [Li—Ac, LiCH3COO·H2O, reference compound] |  |  | 58.4 % relative to batch I | −41.6 | 69.0 % relative to batch I | −31 |  |  | 
